According to ChEMBL document CHEMBL4715865, “Antimyeloma Potential of Caffeic Acid Phenethyl Ester and Its Analogues through Sp1 Mediated Downregulation of IKZF1-IRF4-MYC Axis” (J Nat Prod, 2020):
pIC50: −log10 of the molar value. Active and inactive are the calls of the source. The calls are words filed in the database; no cut-off is given here.

Key:
[1] = system: KMM-1; experiment: (§1) Growth inhibition of human KMM-1 cells at 10 uM after 48 hrs by PrestoBlue cell viability assay relative to control; format: functional
[2] = Induction of apoptosis in human KMM-1 cells assessed as apoptotic cells at 10 uM after 72 hrs by Annexin V/PropidiumIodide staining based flow cytometric analysis relative to control; format: functional
[3] = Induction of apoptosis in human KMM-1 cells assessed as early apoptotic cells at 10 uM after 72 hrs by Annexin V/PropidiumIodide staining based flow cytometric analysis (reference value: 1 +/- 0.4%); format: functional
[4] = Growth inhibition of human KMM-1 cells at 25 uM after 48 hrs by PrestoBlue cell viability assay relative to control; format: functional; settings: read-out: GI
[5] = Induction of apoptosis in human KMM-1 cells assessed as increase in cleaved caspace-3 expression at 50 uM after 48 hrs by immunoblotting analysis; format: functional
[6] = Induction of apoptosis in human KMM-1 cells assessed as necrotic cells at 10 uM after 72 hrs by Annexin V/PropidiumIodide staining based flow cytometric analysis (reference value: 8 +/-1%); format: functional
[7] = Cytotoxicity against human Mononuclear cells assessed as reduction in cll viability at 25 to 50 uM after 48 hrs by PrestoBlue cell viability assay; format: cell-based; settings: mononuclear cell line, dose 25-50 µM
[8] = system: MM.1R; experiment: Induction of apoptosis in human MM1.R cells assessed as increase in cleaved caspace-8 protein expression at 5 to 25 uM after 48 hrs by immunoblotting analysis; format: functional, cell-based; settings: dose 5-25 µM
[9] = system: KMM-1; experiment: Down regulation of cyclin D3 expression in human KMM-1 cells after 48 hrs by immunoblotting analysis; format: functional, cell-based; settings: dose 5-50 µM
[10] = Induction of apoptosis in human KMM-1 cells assessed as necrotic cells at 25 uM after 72 hrs by Annexin V/PropidiumIodide staining based flow cytometric analysis (reference value: 8 +/-1%); format: functional
[11] = system: KMM-1; experiment: Down regulation of OCT2 protein expression in human KMM-1 cells at 50 uM after 48 hrs by immunoblotting analysis; format: functional, cell-based
[12] = system: B cell; experiment: Cytotoxicity against human naive B cells assessed as reduction in cll viability at 25 to 50 uM after 48 hrs by PrestoBlue cell viability assay; format: cell-based; settings: dose 25-50 µM
[13] = Growth inhibition of human KMM-1 cells after 48 hrs by PrestoBlue cell viability assay; format: functional, cell-based; settings: KMM-1, 48 h
[14] = as §1; format: functional; settings: read-out: GI
[15] = Growth inhibition of human KMM-1 cells at 50 uM after 48 hrs by PrestoBlue cell viability assay relative to control; format: functional; settings: read-out: GI
[16] = Induction of apoptosis in human KMM-1 cells assessed as late apoptotic cells at 10 uM after 72 hrs by Annexin V/PropidiumIodide staining based flow cytometric analysis (reference value: 4 +/- 0.5%); format: functional
[17] = system: JJN-3; experiment: Down regulation of IRF4 protein expression in human JJN-3 cells at 50 uM after 48 hrs by immunoblotting analysis; format: functional, cell-based
[18] = system: MM.1R; experiment: Induction of apoptosis in human MM1.R cells at 10 uM after 48 hrs by Annexin V/Propidium Iodide flow cytometric analysis; format: functional, cell-based
[19] = Induction of apoptosis in human KMM-1 cells assessed as early apoptotic cells at 25 uM after 72 hrs by Annexin V/PropidiumIodide staining based flow cytometric analysis (reference value: 1 +/- 0.4%); format: functional
[20] = Down regulation of IRF4 protein expression in human KMM-1 cells at 50 uM incubated for 48 hrs by 48 hrs by immunoblotting analysis relative to control; format: functional
[21] = system: KMM-1; experiment: Down regulation of IRF4 mRNA expression in human KMM-1 cells at 50 uM incubated for 48 hrs by 48 hrs by RT-PCR analysis; format: functional, cell-based
[22] = system: JJN-3; experiment: Down regulation of SP1 protein expression in human JJN-3 cells at 25 uM after 48 hrs by immunoblotting analysis; format: functional, cell-based
[23] = system: JJN-3; experiment: Growth inhibition of human JJN-3 cells after 48 hrs by PrestoBlue cell viability assay; format: functional, cell-based; settings: JJN-3, 48 h
[24] = system: KMM-1; experiment: Growth inhibition of human KMM-1 cells at 1 to 100 uM after 72 hrs by PrestoBlue cell viability assay; format: functional, cell-based; settings: dose 1-100 µM
[25] = system: KMM-1; experiment: Down regulation of Bob-1 protein expression in human KMM-1 cells at 50 uM after 48 hrs by immunoblotting analysis; format: functional, cell-based
[26] = Induction of apoptosis in human MM1.R cells assessed as apoptotic cells at 10 uM after 72 hrs by Annexin V/PropidiumIodide staining based flow cytometric analysis relative to control; format: functional, MM.1R
[27] = system: MM.1R; experiment: Down regulation of SP1 protein expression in human MM1.R cells at 25 uM after 48 hrs by immunoblotting analysis; format: functional, cell-based
[28] = Induction of apoptosis in human KMM-1 cells assessed as viable cells at 25 uM after 72 hrs by Annexin V/PropidiumIodide staining based flow cytometric analysis (reference value: 87 +/- 1%); format: functional; settings: read-out: Activity
[29] = system: JJN-3; experiment: Down regulation of IKZF1 protein expression in human JJN-3 cells at 50 uM after 48 hrs by immunoblotting analysis; format: functional, cell-based
[30] = Induction of apoptosis in human KMM-1 cells assessed as viable cells at 10 uM after 72 hrs by Annexin V/PropidiumIodide staining based flow cytometric analysis (reference value: 87 +/- 1%); format: functional; settings: read-out: Activity
[31] = Growth inhibition of human MM1.R cells after 48 hrs by PrestoBlue cell viability assay; format: functional; settings: MM.1R
[32] = Induction of apoptosis in human KMM-1 cells assessed as late apoptotic cells at 25 uM after 72 hrs by Annexin V/PropidiumIodide staining based flow cytometric analysis (reference value: 4 +/- 0.5%); format: functional
[33] = system: KMM-1; experiment: Growth inhibition of human KMM-1 cells at 1 to 10 uM after 48 hrs by PrestoBlue cell viability assay; format: functional, cell-based; settings: dose 1-10 µM
[34] = system: KMM-1; experiment: Down regulation of cyclin D3 expression in human KMM-1 cells at 5 to 50 uM after 48 hrs by immunoblotting analysis; format: functional, cell-based; settings: dose 5-50 µM
[35] = system: KMM-1; experiment: Growth inhibition of human KMM-1 cells at 0.001 to 50 uM after 48 hrs by PrestoBlue cell viability assay; format: functional, cell-based; settings: dose 0.001-50 µM
[36] = system: MM.1R; experiment: Down regulation of IKZF3 protein expression in human MM1.R cells at 5 to 10 uM after 48 hrs by immunoblotting analysis; format: functional, cell-based; settings: dose 5-10 µM
[37] = system: MM.1R; experiment: Down regulation of MYC protein expression in human MM1.R cells at 5 to 10 uM after 48 hrs by immunoblotting analysis; format: functional, cell-based; settings: dose 5-10 µM
[38] = system: JJN-3; experiment: Down regulation of SP1 protein expression in human JJN-3 cells at 10 uM after 48 hrs by immunoblotting analysis; format: functional, cell-based
[39] = system: MM.1R; experiment: Induction of apoptosis in human MM1.R cells assessed as increase in cleaved caspace-8 protein expression at 10 uM after 48 hrs by immunoblotting analysis; format: functional, cell-based
[40] = system: MM.1R; experiment: Down regulation of IKZF1 protein expression in human MM1.R cells at 5 to 10 uM after 48 hrs by immunoblotting analysis; format: functional, cell-based; settings: dose 5-10 µM
[41] = system: JJN-3; experiment: Down regulation of IRF4 protein expression in human JJN-3 cells at 10 to 100 uM after 48 hrs in presence of TMP by immunoblotting analysis; format: functional, cell-based; settings: dose 10-100 µM
[42] = system: JJN-3; experiment: Induction of apoptosis in human JJN-3 cells assessed as increase in cleaved caspace-8 protein expression at 10 to 50 uM after 48 hrs by […]; format: functional, cell-based; settings: dose 10-50 µM
[43] = system: JJN-3; experiment: Down regulation of IKZF1 protein expression in human JJN-3 cells at 10 to 100 uM after 48 hrs in presence of TMP by immunoblotting analysis; format: functional, cell-based; settings: dose 10-100 µM
[44] = system: MM.1R; experiment: Down regulation of SP1 protein expression in human MM1.R cells at 10 uM after 48 hrs by immunoblotting analysis; format: functional, cell-based
[45] = Potency index, ratio of lenalidomide IC50 to test compound IC50 for growth inhibition of human KMM-1 cells; format: functional

For `O=C(/C=C/c1ccc(O)cc1O)OCCCc1ccccc1`, the “growth inhibition (GI)” value [1] was “inactive”.
`O=C(/C=C/c1ccc(O)c(O)c1)OCCCc1ccccc1` gave an Activity [2] of 40.4%, an Activity [3] of 4% and an inhibition of growth at 25 µM [4] of 58.3%. For the same molecule, the “fold change (FC)” value [5] was 2.9, the Activity [6] was 27% and the Activity [7] was “Non-Toxic”. For the same molecule, the Activity [8] was “Active”, the Activity [9] was “Dose-dependent effect” and the Activity [10] was 43%. The Activity [11] was “Active”, the Activity [12] was “Non-Toxic” and the pIC50 [13] was 4.92. For the same molecule, the inhibition of growth at 10 µM [14] was 28%, the inhibition of growth at 50 µM [15] was 80% and the Activity [16] was 14%. The Activity [17] was “Active”, the Activity [18] was “Active” and the Activity [19] was 7%. The Activity [20] was 62%, the Activity [21] was “Active” and the Activity [22] was “Active”. For the same molecule, the pIC50 [23] was 5.17, the “growth inhibition (GI)” value [24] was “Active” and the Activity [25] was “Active”. For the same molecule, the Activity [26] was 30%, the Activity [27] was “Active” and the viability at 25 µM [28] was 32%. The Activity [29] was “Active”, the viability at 10 µM [30] was 55% and the pIC50 [31] was 5.31. For the same molecule, the Activity [32] was 17.2%.
For `O=C(O)/C=C/c1ccc(O)c(O)c1`, the “growth inhibition (GI)” value [33] was “inactive” and the Activity [34] was “inactive”.
For `O=C(/C=C/c1cccc(O)c1O)OCCCc1ccccc1`, the “growth inhibition (GI)” value [1] was “inactive”.
With `COc1cc(/C=C/C(=O)OCCCc2ccccc2)ccc1O` the “growth inhibition (GI)” value [1] was “inactive”.
For `O=C(/C=C/c1ccc(O)c(O)c1)NCCc1ccccc1`, the “growth inhibition (GI)” value [33] was “Active” and the Activity [34] was “inactive”.
With `Nc1cccc2c1C(=O)N(C1CCC(=O)NC1=O)C2=O` (stereo not drawn) [POMALIDOMIDE] the Activity [2] was 18.4%, the “growth inhibition (GI)” value [35] was “inactive” and the Activity [26] was 43%.
In the case of `O=C(/C=C/c1cc(O)ccc1O)OCCCc1ccccc1`, the Activity [2] was 64.5%, the Activity [36] was “Active” and the Activity [37] was “Active”. The Activity [38] was “Active”, the pIC50 [13] was 5.72 and the inhibition of growth at 10 µM [14] was 89.7%. For the same molecule, the Activity [18] was “Active”, the Activity [39] was “Active” and the Activity [40] was “Active”. The pIC50 [23] was 5.41, the Activity [41] was “Active” and the Activity [26] was 54%. The pIC50 [31] was 6.22, the Activity [42] was “Active” and the Activity [43] was “Active”. The Activity [44] was “Active” and the “Ratio IC50” value [45] was 12.
